Converted amounts (≈) assume the structure as drawn.
Legend:
MCF7 = assay: Cytotoxicity against human MCF7 cells; format: functional; conditions: read-out: ED50 (the source's name)
HT-29 = assay: Cytotoxicity against human HT-29 cells; format: functional; conditions: for EC50: Homo sapiens, HT-29, read-out: ED50 (the source's name)
A549 = assay: Cytotoxicity against human A549 cells; format: functional; conditions: read-out: ED50 (the source's name)
[1] = Chemopreventive activity in Chinese hamster embryonic cells assessed as inhibition of benzo[a]pyrene metabolism to water soluble derivatives; format: functional, Cricetulus griseus; conditions: for IC50: Cricetulus griseus, read-out: ID50 (the source's name)
[2] = Cytotoxicity against human 9KB cells; format: functional; conditions: read-out: ED50 (the source's name)
[3] = Cytotoxicity against mouse 9PS cells; format: functional; conditions: for EC50: Mus musculus, read-out: ED50 (the source's name)
P388 [4] = assay: In vivo antitumor activity against mouse P388 cells at 20 mg/kg relative to control; format: functional
[5] = Chemopreventive activity in Chinese hamster embryonic cells assessed as inhibition of benzo[a]pyrene metabolism at 10 to 25 ug/ml; format: functional, Cricetulus griseus
P388 [6] = assay: In vivo antitumor activity against mouse P388 cells at 50 mg/kg relative to control; format: functional

Structure (SMILES)	EC50 (MCF7) [µg/mL]	EC50 (HT-29) [µg/mL]	EC50 (A549) [µg/mL]	also measured
COc1cc(C2Oc3c(OC)cc4c(=O)c5ccccc5oc4c3OC2CO)ccc1O (centres undefined)	> 10	3 (≈ 6.87 µM)	3 (≈ 6.87 µM)	–
O=c1c(-c2ccc(O)cc2)coc2cc(O)cc(O)c12 [GENISTEIN]	–	–	–	IC50 [1]: 30 µg/mL (≈ 111 µM)
O=c1cc(-c2ccc(O)cc2)oc2cc(O)cc(O)c12 [APIGENIN]	–	–	–	IC50 [1]: 17 µg/mL (≈ 62.9 µM)
COc1cc2c(c3oc4c(O)cccc4c(=O)c13)C[C@H]([C@](C)(O)CO)O2	> 10	2.3 (≈ 6.42 µM)	> 10	–
COc1cc2c(c3oc4c(O)cccc4c(=O)c13)C[C@H]([C@](C)(O)COC(C)=O)O2	2.5 (≈ 6.24 µM)	0.016 (≈ 0.04 µM)	2 (≈ 5 µM)	–
COc1cccc(C/C(=N/OS(=O)(=O)O)S[C@@H]2O[C@H](CO)[C@@H](O)[C@H](O)[C@H]2O)c1 [GLUCOLIMNANTHIN]	–	–	–	inhibition (INH) [1]: 71%
COc1cc(O)c2c3c1-c1c(ccc(O)c1O)[C@@H]1Oc4ccccc4[C@@H](CC2=O)[C@@H]31 [OHIOENSIN D]	> 10	> 10	> 10	EC50 [2]: > 10 µg/mL; EC50 [3]: 1 µg/mL (≈ 2.49 µM)
CC(C)c1oc(=O)cc2c1[C@@H](O)[C@H]1OC(=O)[C@@]3(C)[C@@H](O)[C@H]4O[C@H]4[C@@]2(C)[C@@H]13 [NAGILACTONE C]	–	–	–	T/C (P388 [4]): 145%
COc1cc(C2Oc3ccc4c(=O)c5c(O)cc(O)cc5oc4c3OC2CO)cc(OC)c1O (centres undefined)	> 10	0.4 (≈ 0.854 µM)	3 (≈ 6.4 µM)	–
CCCCCCCCCCCC[C@H](O)[C@@H]1CC[C@@H]([C@@H](O)CCCCC(=O)CCCCCC2CC(CC(C)=O)C(=O)O2)O1 (some centres undefined) [ISOANNONACINONE]	–	0.009 (≈ 0.0151 µM)	0.07 (≈ 0.118 µM)	EC50 [3]: 0.5 µg/mL (≈ 0.841 µM)
COc1ccc(-c2cc(=O)c3c(O)cc(O)cc3o2)cc1 [ACACETIN]	–	–	–	IC50 [1]: 15 µg/mL (≈ 52.8 µM)
COc1cc2c(c3oc4c(O)cccc4c(=O)c13)[C@@H]1OC[C@@](C)(O)[C@@H]1O2 [PSOROFEBRIN]	> 10	8.5 (≈ 23.9 µM)	> 10	–
COc1ccc2c(c1O)-c1c(OC)cc(O)c3c1[C@@H]1[C@H](CC3=O)c3ccccc3O[C@@H]21 [OHIOENSIN E]	> 10	> 10	6 (≈ 14.4 µM)	EC50 [2]: > 10 µg/mL; EC50 [3]: 1 µg/mL (≈ 2.4 µM)
O=C1C[C@@H]2c3ccccc3O[C@H]3c4cc(O)ccc4-c4c(O)cc(O)c1c4[C@H]23 [OHIOENSIN A]	9 (≈ 24.2 µM)	> 10	> 10	EC50 [2]: > 10 µg/mL; EC50 [3]: 1 µg/mL (≈ 2.69 µM)
COc1cc(C2Oc3c(OC)cc4c(=O)c5c(OC)cccc5oc4c3OC2CO)cc(OC)c1O (centres undefined)	> 10	> 10	> 10	–
O=c1cc(-c2ccccc2)oc2cc(O)cc(O)c12 [CHRYSIN]	–	–	–	IC50 [1]: 12 µg/mL (≈ 47.2 µM)
COc1cc(O)c2c3c1-c1c(O)cccc1[C@@H]1Oc4ccccc4[C@@H](CC2=O)[C@@H]31 [OHIOENSIN C]	3 (≈ 7.76 µM)	4 (≈ 10.4 µM)	> 10	EC50 [2]: 10 µg/mL (≈ 25.9 µM); EC50 [3]: > 10 µg/mL
O=C1C[C@@H]2c3ccccc3O[C@H]3c4cccc(O)c4-c4c(O)cc(O)c1c4[C@H]23 [OHIOENSIN B]	7 (≈ 18.8 µM)	> 10	8 (≈ 21.5 µM)	EC50 [2]: > 10 µg/mL; EC50 [3]: 1 µg/mL (≈ 2.69 µM)
CCCCCCCCCCCC[C@H](O)[C@@H]1CC[C@@H]([C@@H](O)CCCCC(O)CCCCCC2CC(CC(C)=O)C(=O)O2)O1 (some centres undefined) [ISOANNONACIN]	–	0.002 (≈ 0.00335 µM)	0.02 (≈ 0.0335 µM)	EC50 [3]: 3 µg/mL (≈ 5.03 µM)
COc1cc2c(c3oc4c(O)cccc4c(=O)c13)C[C@H]([C@@]1(C)CO1)O2 [PSOROSPERMIN]	0.012 (≈ 0.0353 µM)	–	0.0016 (≈ 0.0047 µM)	ED50 (HT-29): >1 ×10⁻⁵ ug/ml
COc1ccc(-c2coc3cc(O)cc(O)c3c2=O)cc1 [BIOCHANIN]	–	–	–	inhibition (INH) [5]: 30%; IC50 [1]: 25 µg/mL (≈ 87.9 µM)
C[S+]([O-])C[C@@](C)(O)[C@H]1OC(=O)C=C2[C@@]13O[C@@H]3[C@H]1OC(=O)[C@@]3(C)[C@H]4O[C@H]4C[C@@]2(C)[C@@H]13 (some centres undefined) [PODOLACTONE C]	–	–	–	T/C (P388 [4]): 151%
COc1cc(C2Oc3c(OC)cc4c(=O)c5c(OC)cccc5oc4c3OC2CO)ccc1O (centres undefined)	> 10	> 10	> 10	–
COc1ccc(-c2coc3cc(OC)cc(O)c3c2=O)cc1 [4',7-DIMETHOXY-5-HYDROXYGENISTEIN]	–	–	–	IC50 [1]: > 50 µg/mL
COc1cc(C2Oc3c(OC)cc4c(=O)c5c(OC)cccc5oc4c3OC2COC(C)=O)ccc1O (centres undefined)	> 10	4 (≈ 7.87 µM)	4 (≈ 7.87 µM)	–
COc1cc(C2Oc3c(OC)cc4c(=O)c5ccccc5oc4c3OC2CO)cc(OC)c1O (centres undefined)	> 10	> 10	> 10	–
CC(C)[C@H]1OC(=O)C=C2[C@@]13O[C@@H]3[C@H]1OC(=O)[C@@]3(C)C=CC[C@@]2(C)[C@@H]13 [PODOLIDE]	–	–	–	T/C (P388 [6]): 127%
CCCCCCCCCCCC[C@@H](O)[C@H]1CC[C@H]([C@H](O)CCCCC(=O)CCCCC[C@@H](O)CC2=C[C@H](C)OC2=O)O1 [ANNONACINONE]	–	1 (≈ 1.68 µM)	0.1 (≈ 0.168 µM)	ED50 [3]: 1 ×10⁻⁶ ug/ml
COc1ccc(-c2coc3cc(OC)cc(OC)c3c2=O)cc1 [BIOCHANIN A, DIMETHYL ETHER]	–	–	–	IC50 [1]: 50 µg/mL (≈ 160 µM)
CCCCCCCCCCCC[C@@H](O)[C@H]1CC[C@H]([C@H](O)CCCC[C@H](O)CCCCC[C@@H](O)CC2=CC(C)OC2=O)O1 (some centres undefined) [ANNONACIN]	–	3 (≈ 5.03 µM)	0.001 (≈ 0.00168 µM)	ED50 [3]: 1 ×10⁻⁵ ug/ml

— ChEMBL document CHEMBL1151137, “Natural products as a source of potential cancer chemotherapeutic and chemopreventive agents” (1990)
